In US8212112B2, “Gene participating in low temperature germinability in rice and utilization of the same” (Hokuren Federation of Agricultural Cooperatives, priority 2007, dated 2012):

Key:
[1] = tested on: qLTG-3-1 gene; experiment: qLTG-3-1 gene expression by Northern blot and RT-PCR analysis; set-up: species or system rice (O. sativa); conditions: ABA, NaCl (250 mM), mannitol (500 mM)
Procedure: To carry out an analysis of gene expression, the total RNA was extracted from various organs of rice using RNAiso (TAKARA). The total RNA (0.5 μg) was reverse-transcripted with Rever Tra Ace (TOYOBO) having an Oligo(dT)20 primer, in accordance with the manufacturing guidelines. The PCR reaction was carried out using KOD-plus (TOYOBO). Each PCR reaction (10 μL) included 0.5 μL of cDNA template that had been diluted 5-fold. The specificity of each primer for the target gene was confirmed by PCR product sequencing. For the purpose of Northern blotting analysis, the total RNA (4 μg/sample) was isolated on 2.0% (w/v) agarose-modified formaldehyde gel containing 40 mM MOPS (pH 7.0), 10 mM Na-acetate, 1 mM EDTA and 2% (v/v) formaldehyde.
The RNA was transferred with 20×SSC to a positively charged nylon membrane (Roche Diagnostics). Hybridization and signal detection were carried out by, respectively, a DIG system and CDP-star (Roche Diagnostics). The PCR fragments from the primers 13-5U and 13-5L were used as the probes for Northern blot analysis. The primers and amplification conditions for RT-PCR analysis are shown subsequently in Table 5.
In this example, the expression of the qLTG-3-1 gene was studied. Using RNAiso (TAKARA), the total RNA was extracted from each organ of rice and treated with DNaseI (TAKARA). For Northern blot analysis, the total RNA (4 μg/sample) was separated on 2.0% (w/v) agarose-modified formaldehyde gel containing 40 mM of MOPS (pH 7.0), 10 mM of sodium acetate and 2% (v/v) formaldehyde.
The RNA was blotted with 20×SSC to a positively charged nylon membrane (Roche Diagnostics). Hybridization and signal detection were carried out with a DIG system and CDP-Star (Roche Diagnostics) according to the manufacturing guidelines. The PCR fragments obtained from the primers 13-5U and 13-5L were used as the probes for Northern blot analysis (Table 5).
In this example, the association between qLTG-3-1 expression and seed germination was examined. […]

[2] = tested on: rice seeds (Hayamasari, NILHYqLTG-3-1, Italica Livorno); experiment: germination tests under stress conditions (ABA, GA, NaCl, mannitol, temperature); set-up: species or system rice (O. sativa); conditions: for germination response at low NaCl / mannitol concentrations: concentrations lower than 250 mM mannitol and 150 mM NaCl
Procedure: To study the germinability under difference stress conditions, germination tests were carried out according to the method reported by Fujino et al. (2004). For low-temperature stress, seeds were placed on Petri dishes which were then loaded into an incubator. Solutions of plant hormones (ABA and GA), NaCl and mannitol at different concentrations were added to the Petri dishes which were then placed in an incubator. […] (A) is the germination at the optimal temperature of 25° C., (B) is the germination at 13° C., (C) is the sensitivity to NaCl (300 mM), (D) is the sensitivity to mannitol (500 mM), and (E) is the sensitivity to ABA ([…]). Examples of […]-3-1 (closed triangles), and Italica Livorno (open circles) are shown. The numerical values represent the mean±standard deviation (SD) for triplicates. […] In (A), the seeds were incubated in water at 25° C., 15° C., 13° C. and 10° C. In (B), GA (100, 200, 500 μM) was added at 15° C.; in (C), ABA ([…]) was added at 25° C.; in (D), NaCl (150, 250, 300 mM) was added; and in (E), mannitol (250, 500, 600 mM) was added, following which incubation was carried out. The open circles indicate controls. The low concentrations to high concentrations are indicated by, in order, open circles, triangles and squares. […] The open and closed symbols represent, respectively, the presence and absence of […]-3-1 and Italica Livorno are represented by, respectively, circles, triangles, and squares. […] Germination tests were carried out by the method reported by Fujino et al. (2004). For the low temperature stress, seeds on a Petri dish were placed in an incubator. Solutions of plant hormone (ABA and GA) and mannitol at different concentrations were added to the Petri dishes at this time before placing the dishes in the incubator.

SMILES	qLTG-3-1 expression pattern in embryos under stress treatment [1]	germination response in ABA treatment ([2]; ABA added at 25° C.)	effect of exogenous GA on seed germination ([2]; 15° C., Hayamasari, NILHYqLTG-3-1 and Italica Livorno)	germination response at low NaCl / mannitol concentrations [2]
CC1=CC(=O)CC(C)(C)C1(O)/C=C/C(C)=C\C(=O)O (stereo not shown) [ABA]	delay and suppression of qLTG-3-1 expression	a delay in germination was observed in both parents		
C=C1C[C@]23C[C@@]1(O)CC[C@H]2[C@@]12C=C[C@H](O)[C@@](C)(C(=O)O1)[C@H]2[C@@H]3C(=O)O [GA]			did not promote seed germination in any of the genotypes	
[Cl-].[Na+] [NaCl]	delay and suppression of qLTG-3-1 expression			all the varieties showed a delay in germination
OC[C@@H](O)[C@@H](O)[C@H](O)[C@H](O)CO [mannitol]	delay and suppression of qLTG-3-1 expression			all the varieties showed a delay in germination
